Assay results taken from patent US20240197726A1, “NOVEL TETRAHYDROISOQUINOLINE ALKALOID COMPOUND CONTAINING MACROCYCLE” (THE UNIVERSITY OF TOKYO, priority 2021, published 2024).
Like-named read-outs stand apart in the source and are kept apart here.

Assays:
[1] = tested on: NCI-H23 lung cancer cells; settings: cited from earlier work
[2] = tested on: HT-29 colorectal cancer cells; settings: cited from earlier work
A549 lung cancer cells [3] = settings: cited from earlier work
[4] = tested on: HCT-116 colorectal cancer cells; settings: cited from earlier work
[5] = tested on: NCI-H460 lung cancer cells; settings: cited from earlier work
[6] = tested on: MCF-7 breast cancer cells; settings: cited from earlier work
[7] = tested on: MDA-MB-231 breast cancer cells; settings: cited from earlier work
[8] = tested on: SNB-75 central nervous system cancer cells; assay: antitumor activity, sulforhodamine B cell growth assay, SNB-75; format: cell-based; settings: SNB-75 central nervous system cancer cells; read-out: antitumor activity GI50 value: 50% growth inhibitory concentration
Description: (§1) The THIQ compound containing a macrocyclic structure of the present invention was administered to various cancer cell lines, and the antitumor activity (Go value) was observed. Specifically, verification was performed according to the literature (Yamori, T.; Matsunaga, A.; Sato, S.; Yamazaki, K.; Komi, A.; Ishizu, K. et al. Cancer Res. 1999, 59, 4042) by the following procedure.
(§2) Cells were plated at an appropriate density in a 96-well plate in RPMI 1640 together with 5% fetal bovine serum, and adhered overnight. The cells were exposed to a drug for 48 hours. Then, according to the sulforhodamine B assay described by Skehan et al (Skehan P., Storeng R., Scudiero D., Monks A., McMahon J., Vistica D., Warren J. T., Bokesch H., Kenney S., Boyd M. R. J Natl. Cancer Inst, 1990, 82, 1107-1112), the cell growth rate was measured. The absorbance of the control well (C) and the test well (T) was measured at 525 nm. In addition, the time at which the drug was added was set as time 0, and the absorbance for the test well (T0) was measured. Using these measured values, the cell growth inhibitory effect (% growth=PG) was calculated by the following formula at each concentration of the drug.
(§3) (T<T0): PG=100×[(T−T0)/T]
(§4) The PG values determined above for each cell line were plotted against the concentration (logarithm) on a semi-logarithmic graph, and summarized for each visceral cancer. Concentrations at which the dose-response curve of each cell line crossed the horizontal line of PG=50%, 0%, or −50% were calculated. These concentrations were defined as Log GI50, Log TGI, and Log LC50. Actually, using two data points of the drug concentration before and after crossing each horizontal line, the drug concentration (logarithmic value) at the intersection of the straight line connecting the two points and the horizontal line for each PG was calculated.

[9] = tested on: HT-29 colorectal cancer cells; assay: antitumor activity, sulforhodamine B cell growth assay, HT-29; format: cell-based; settings: HT-29 colorectal cancer cells; read-out: antitumor activity GI50 value: 50% growth inhibitory concentration
Description: as §1, §2, §3, §4

[10] = tested on: DU-145 prostate cancer cells; assay: antitumor activity, sulforhodamine B cell growth assay, DU-145; format: cell-based; settings: DU-145 prostate cancer cells; read-out: antitumor activity GI50 value: 50% growth inhibitory concentration
Description: as §1, §2, §3, §4

A549 lung cancer cells [11] = assay: antitumor activity, sulforhodamine B cell growth assay, A549; format: cell-based; settings: A549 lung cancer cells; read-out: antitumor activity GI50 value: 50% growth inhibitory concentration
Description: as §1, §2, §3, §4

DMS114 lung cancer cells = assay: antitumor activity, sulforhodamine B cell growth assay, DMS114; format: cell-based; settings: DMS114 lung cancer cells; read-out: antitumor activity GI50 value: 50% growth inhibitory concentration
Description: as §1, §2, §3, §4

[12] = tested on: HBC-5 breast cancer cells; assay: antitumor activity, sulforhodamine B cell growth assay, HBC-5; format: cell-based; settings: HBC-5 breast cancer cells; read-out: antitumor activity GI50 value: 50% growth inhibitory concentration
Description: as §1, §2, §3, §4

[13] = tested on: SF-295 central nervous system cancer cells; assay: antitumor activity, sulforhodamine B cell growth assay, SF-295; format: cell-based; settings: SF-295 central nervous system cancer cells; read-out: antitumor activity GI50 value: 50% growth inhibitory concentration
Description: as §1, §2, §3, §4

SK-OV-3 cancer cells = assay: antitumor activity, sulforhodamine B cell growth assay, SK-OV-3; format: cell-based; settings: SK-OV-3 cervical cancer cells; read-out: antitumor activity GI50 value: 50% growth inhibitory concentration
Description: as §1, §2, §3, §4

[14] = tested on: MKN-A gastric cancer cells; assay: antitumor activity, sulforhodamine B cell growth assay, MKN-A; format: cell-based; settings: MKN-A gastric cancer cells; read-out: antitumor activity GI50 value: 50% growth inhibitory concentration
Description: as §1, §2, §3, §4

[15] = tested on: MKN1 gastric cancer cells; assay: antitumor activity, sulforhodamine B cell growth assay, MKN1; format: cell-based; settings: MKN1 gastric cancer cells; read-out: antitumor activity GI50 value: 50% growth inhibitory concentration
Description: as §1, §2, §3, §4

[16] = tested on: NCI-H226 lung cancer cells; assay: antitumor activity, sulforhodamine B cell growth assay, NCI-H226; format: cell-based; settings: NCl-H226 lung cancer cells; read-out: antitumor activity GI50 value: 50% growth inhibitory concentration
Description: as §1, §2, §3, §4

[17] = tested on: NCI-H460 lung cancer cells; assay: antitumor activity, sulforhodamine B cell growth assay, NCI-H460; format: cell-based; settings: NCl--H460 lung cancer cells; read-out: antitumor activity GI50 value: 50% growth inhibitory concentration
Description: as §1, §2, §3, §4

[18] = tested on: MDA-MB-231 breast cancer cells; assay: antitumor activity, sulforhodamine B cell growth assay, MDA-MB-231; format: cell-based; settings: MDA-MB-231 breast cancer cells; read-out: antitumor activity GI50 value: 50% growth inhibitory concentration
Description: as §1, §2, §3, §4

[19] = tested on: MKN-B gastric cancer cells; assay: antitumor activity, sulforhodamine B cell growth assay, MKN-B; format: cell-based; settings: MKN-B gastric cancer cells; read-out: antitumor activity GI50 value: 50% growth inhibitory concentration
Description: as §1, §2, §3, §4

[20] = tested on: HCT-15 colorectal cancer cells; assay: antitumor activity, sulforhodamine B cell growth assay, HCT-15; format: cell-based; settings: HCT-15 colorectal cancer cells; read-out: antitumor activity GI50 value: 50% growth inhibitory concentration
Description: as §1, §2, §3, §4

[21] = tested on: SNB-78 central nervous system cancer cells; assay: antitumor activity, sulforhodamine B cell growth assay, SNB-78; format: cell-based; settings: SNB-78 central nervous system cancer cells; read-out: antitumor activity GI50 value: 50% growth inhibitory concentration
Description: as §1, §2, §3, §4

[22] = tested on: St-4 gastric cancer cells; assay: antitumor activity, sulforhodamine B cell growth assay, St-4; format: cell-based; settings: SI-4 gastric cancer cells; read-out: antitumor activity GI50 value: 50% growth inhibitory concentration
Description: as §1, §2, §3, §4

[23] = tested on: HCT-116 colorectal cancer cells; assay: antitumor activity, sulforhodamine B cell growth assay, HCT-116; format: cell-based; settings: HCT-116 colorectal cancer cells; read-out: antitumor activity GI50 value: 50% growth inhibitory concentration
Description: as §1, §2, §3, §4

LOX-IMVI melanoma cells = assay: antitumor activity, sulforhodamine B cell growth assay, LOX-IMVI; format: cell-based; settings: LOX-IMVI melanoma cells; read-out: antitumor activity GI50 value: 50% growth inhibitory concentration
Description: as §1, §2, §3, §4

[24] = tested on: HCC2998 colorectal cancer cells; assay: antitumor activity, sulforhodamine B cell growth assay, HCC2998; format: cell-based; settings: HCC2998 colorectal cancer cells; read-out: antitumor activity GI50 value: 50% growth inhibitory concentration
Description: as §1, §2, §3, §4

[25] = tested on: SF-539 central nervous system cancer cells; assay: antitumor activity, sulforhodamine B cell growth assay, SF-539; format: cell-based; settings: SF-539 central nervous system cancer cells; read-out: antitumor activity GI50 value: 50% growth inhibitory concentration
Description: as §1, §2, §3, §4

[26] = tested on: NCI-H522 lung cancer cells; assay: antitumor activity, sulforhodamine B cell growth assay, NCI-H522; format: cell-based; settings: NCl-H522 lung cancer cells; read-out: antitumor activity GI50 value: 50% growth inhibitory concentration
Description: as §1, §2, §3, §4

[27] = tested on: BSY-1 breast cancer cells; assay: antitumor activity, sulforhodamine B cell growth assay, BSY-1; format: cell-based; settings: BSY-1 breast cancer cells; read-out: antitumor activity GI50 value: 50% growth inhibitory concentration
Description: as §1, §2, §3, §4

DMS273 lung cancer cells = assay: antitumor activity, sulforhodamine B cell growth assay, DMS273; format: cell-based; settings: DMS273 lung cancer cells; read-out: antitumor activity GI50 value: 50% growth inhibitory concentration
Description: as §1, §2, §3, §4

[28] = tested on: KM-12 colorectal cancer cells; assay: antitumor activity, sulforhodamine B cell growth assay, KM-12; format: cell-based; settings: KM-12 colorectal cancer cells; read-out: antitumor activity GI50 value: 50% growth inhibitory concentration
Description: as §1, §2, §3, §4

[29] = tested on: MKN45 gastric cancer cells; assay: antitumor activity, sulforhodamine B cell growth assay, MKN45; format: cell-based; settings: MKN45 gastric cancer cells; read-out: antitumor activity GI50 value: 50% growth inhibitory concentration
Description: as §1, §2, §3, §4

ACHN kidney cancer cells = assay: antitumor activity, sulforhodamine B cell growth assay, ACHN; format: cell-based; settings: ACHN kidney cancer cells; read-out: antitumor activity GI50 value: 50% growth inhibitory concentration
Description: as §1, §2, §3, §4

[30] = tested on: HBC-4 breast cancer cells; assay: antitumor activity, sulforhodamine B cell growth assay, HBC-4; format: cell-based; settings: HBC-4 breast cancer cells; read-out: antitumor activity GI50 value: 50% growth inhibitory concentration
Description: as §1, §2, §3, §4

[31] = tested on: U251 central nervous system cancer cells; assay: antitumor activity, sulforhodamine B cell growth assay, U251; format: cell-based; settings: U251 central nervous system cancer cells; read-out: antitumor activity GI50 value: 50% growth inhibitory concentration
Description: as §1, §2, §3, §4

COc1cc2c(cc1O)CCNC21CS[C@@H]2c3c(OC(C)=O)c(C)c4c(c3C(COC1=O)N1[C@@H]2[C@H]2c3c(cc(C)c(OC)c3O)C[C@@H]([C@@H]1O)N2C)OCO4 (some centres unmarked) [Ecteinascidin 743, reference compound]
GI50 ([1]; NCI-H23, reference values from literature (Leal et al. Br. J Pharmacol, 2010), read-out: GI50 value: 50% growth inhibitory concentration): 0.0021 µM
GI50 ([2]; HT-29, reference values from literature (Leal et al. Br. J Pharmacol, 2010), read-out: GI50 value: 50% growth inhibitory concentration): 0.0098 µM
GI50 (A549 lung cancer cells [3]; A549, reference values from literature (Leal et al. Br. J Pharmacol, 2010), read-out: GI50 value: 50% growth inhibitory concentration): 0.0104 µM
GI50 ([4]; HCT-116, reference values from literature (Leal et al. Br. J Pharmacol, 2010), read-out: GI50 value: 50% growth inhibitory concentration): 0.0049 µM
GI50 ([5]; NCI-H460, reference values from literature (Leal et al. Br. J Pharmacol, 2010), read-out: GI50 value: 50% growth inhibitory concentration): 0.0018 µM
GI50 ([6]; MCF-7, reference values from literature (Leal et al. Br. J Pharmacol, 2010), listed as drawing 118, read-out: GI50 value: 50% growth inhibitory concentration): 0.0026 µM
GI50 ([6]; MCF-7, reference values from literature (Leal et al. Br. J Pharmacol, 2010), listed as drawing 142, read-out: GI50 value: 50% growth inhibitory concentration): 0.0028 µM
GI50 ([7]; MDA-MB-231, reference values from literature (Leal et al. Br. J Pharmacol, 2010), read-out: GI50 value: 50% growth inhibitory concentration): 0.0039 µM

CC1=C(C)C(=O)C2=C(CC3(C)[C@H]4c5c(cc(C)c(C)c5C)C[C@@](C)(C(C)N3[C@H]2CNC(=O)C(C)C)N4C)C1=O (some centres unmarked) [drawing 164]
GI50 [8]: 0.15 µM
GI50 [9]: 0.19 µM
GI50 [10]: 0.49 µM
GI50 (A549 lung cancer cells [11]): 1.6 µM
GI50 (DMS114 lung cancer cells): 0.035 µM
GI50 [12]: 0.062 µM
GI50 [13]: 0.5 µM
GI50 (SK-OV-3 cancer cells): 0.54 µM
GI50 [14]: 0.25 µM
GI50 [15]: 0.052 µM
GI50 [16]: 0.31 µM
GI50 [17]: 0.4 µM
GI50 [18]: 0.13 µM
GI50 [19]: 0.17 µM
GI50 [20]: 0.39 µM
GI50 [21]: 0.063 µM
GI50 [22]: 0.43 µM
GI50 [23]: 0.29 µM
GI50 (LOX-IMVI melanoma cells): 0.061 µM
GI50 [24]: 0.35 µM
GI50 [25]: 0.18 µM
GI50 [26]: 0.043 µM
GI50 [27]: 0.034 µM
GI50 (DMS273 lung cancer cells): 0.27 µM
GI50 [28]: 0.53 µM
GI50 [29]: 0.3 µM
GI50 (ACHN kidney cancer cells): 0.32 µM
GI50 [30]: 0.059 µM
GI50 [31]: 0.37 µM

COc1c(C)cc2c(c1C)[C@H]1N(C)[C@@](C)(C2)C(O)N2C1(C)[C@@H]1CCC3(NCCc4cc(C)c(C)cc43)C(=O)OC[C@@]2(C)c2c3c(c(C)c(C)c21)OCO3 (some centres unmarked)
GI50 ([1]; NCl-H23 lung cancer cells, comparative value based on the literature, read-out: antitumor activity GI50 value: 50% growth inhibitory concentration): 0.0021 µM
GI50 ([2]; HT-29 colorectal cancer cells, comparative value based on the literature, read-out: antitumor activity GI50 value: 50% growth inhibitory concentration): 0.0098 µM
GI50 (A549 lung cancer cells [3]; A549 lung cancer cells, comparative value based on the literature, read-out: antitumor activity GI50 value: 50% growth inhibitory concentration): 0.0104 µM
GI50 ([4]; HCT-116 colorectal cancer cells, comparative value based on the literature, read-out: antitumor activity GI50 value: 50% growth inhibitory concentration): 0.0049 µM
GI50 ([5]; NCl--H460 lung cancer cells, comparative value based on the literature, read-out: antitumor activity GI50 value: 50% growth inhibitory concentration): 0.0018 µM
GI50 ([6]; MCF-7 breast cancer cells, comparative value based on the literature, read-out: antitumor activity GI50 value: 50% growth inhibitory concentration): 0.0026 µM
GI50 ([7]; MDA-MB-231 breast cancer cells, comparative value based on the literature, read-out: antitumor activity GI50 value: 50% growth inhibitory concentration): 0.0039 µM
